What was measured:
[1] = system: purified bovine brain tubulin; test: tubulin polymerisation assay; assay type: biochemical; conditions: 10 μM
Method: The assembly of purified bovine tubulin was monitored using a kit, BK006, purchased from Cytoskeleton Inc. (Denver, CO, USA). […] Light is scattered proportionally to the concentration of polymerised microtubules in the assay. Therefore, tubulin assembly was monitored turbidimetrically at 340 nm in a Spectramax 340 PC spectrophotometer (Molecular Devices, Sunnyvale, CA, USA). The absorbance was measured at 30 s intervals for 60 min.

HL-60 leukaemia cells = system: HL-60 leukaemia cells; set-up: method as in PMID 19647439; conditions: read-out: IC50 of phenstatin in HL-60; cited from earlier work
[2] = system: MCF-7 human breast cancer cells; test: alamarBlue cell viability assay; assay type: cell-based; conditions: Homo sapiens, MCF7, 72 h, read-out: cell viability (viable cells)
Method: The human breast carcinoma cell line MCF-7 was purchased from the European Collection of Animal Cell Cultures (ECACC) and cultured in Eagles minimum essential medium with 10% foetal bovine serum, 2 mM L-glutamine, and 100 μg/mL penicillin/streptomycin. The medium was supplemented with 1% non-essential amino acids. The human breast carcinoma cell line MDA-MB-231 was purchased from the ECACC. MDA-MB-231 cells were maintained in Dulbecco’s modified Eagle’s medium (DMEM) supplemented with 10% (v/v) foetal bovine serum, 2 mM L-glutamine, and 100 μg/mL penicillin/streptomycin (complete medium). HL-60 cells were derived from a patient with acute myeloid leukaemia and were obtained from the ECACC (Salisbury, UK). Cells were cultured in RPMI-1640 Glutamax medium supplemented with 10% FCS media and 100 μg/mL penicillin/streptomycin. MCF-10A cells were obtained as a kind gift from Dr Susan McDonnell, School of Chemical and Bioprocess Engineering, University College Dublin and were cultured in Dulbecco’s Modified Eagle Medium: Nutrient Mixture F-12 (DMEM/F12; Gibco) supplemented with 5% horse serum (Invitrogen), 20 ng mL^−1 epidermal growth factor (Merck Millipore), 0.5 μg mL^−1 hydrocortisone (Sigma,-Aldrich, Arklow, Co. Wicklow, Ireland), 100 ng mL^−1 cholera toxin (Sigma, Aldrich, Arklow, Co. Wicklow, Ireland), 10 μg mL^−1 insulin (Sigma, Aldrich, Arklow, Co. Wicklow, Ireland), and penicillin/streptomycin 5000 U mL^−1 (1%)(Gibco, Biosciences, 3 Charlemont Terrace, Crofton Road, Dun Laoghaire, Co Dublin, A96 K7H7, Ireland). Cells were maintained at 37 °C in 5% CO2 in a humidified incubator. All cells were sub-cultured 3 times/week by trypsinisation using TrypLE Express (1×).
Cells were seeded at a density of 2.5 × 10^4 cells/well (MCF-7, MDA-MB-231, MCF-10A cells) and 1 × 10^4 cells/well (HL-60) in 96-well plates (200 μL per well). After 24 h, cells were then treated with either medium alone, vehicle control (1% ethanol (v/v)) or with serial dilutions of CA-4 (4a), phenstatin (7a) or selected compounds (0.001–100 μM) in triplicate. Cell proliferation for MCF-7, MDA-MB-231, and MCF-10A cells was analysed using the alamarBlue assay (Invitrogen Corp.) according to the manufacturer’s instructions. After 67–69 h, alamarBlue (10% (v/v)) was added to each well, and plates were incubated for 3–5 h at 37 °C in the dark. Fluorescence was read using a 96-well fluorimeter with excitation at 530 nm and emission at 590 nm. Results were expressed as percentage viability relative to vehicle control (100%).

[3] = system: tubulin (microtubule network) in MCF-7 cells; test: immunofluorescence confocal microscopy of microtubule network; assay type: cell-based, human; conditions: 1 μM, 16 h
Method: Confocal microscopy was used to study the effects of drug treatment on MCF-7 cytoskeleton. For immunofluorescence, MCF-7 cells were seeded at 1 × 10^5 cells/mL on eight chamber glass slides (BD Biosciences). […] Following treatment, cells were gently washed in PBS, fixed for 20 min with 4% paraformaldehyde in PBS, and permeabilised in 0.5% Triton X-100. Following washes in PBS containing 0.1% Tween (PBST), cells were blocked in 5% bovine serum albumin diluted in PBST. […] Following washes in PBST, the cells were mounted in Ultra Cruz Mounting Media (Santa Cruz Biotechnology, Santa Cruz, CA) containing 4,6-diamino-2-phenolindol dihydrochloride (DAPI). Images were captured by Leica SP8 confocal microscopy with Leica application suite X software. All images in each experiment were collected on the same day using identical parameters. Experiments were performed on three independent occasions.

MCF-7 cells [4] = test: Annexin V/PI apoptotic assay; assay type: cell-based, human; conditions: for Annexin V-stained positive cells (total apoptotic cells): 48 h
Method: (§1) Apoptotic cell death was detected by flow cytometry using Annexin V and propidium iodide (PI). MCF-7 and MDA-MB-231 cells were seeded in 6-well plates at a density of 1 × 10^5 cells/mL (3 mL) and treated with either vehicle (0.1% (v/v) EtOH), Phenstatin (7a), or 21l at different concentrations for the selected time. Then, cells were harvested and prepared for flow cytometric analysis. […] Then, cells were washed once in binding buffer and then re-suspended in PI-containing binding buffer (1:1000). […] Four populations are produced during the assay: Annexin V and PI negative (Q4, healthy cells), Annexin V positive and PI negative (Q3, early apoptosis), Annexin V and PI positive (Q2, late apoptosis), and Annexin V negative and PI positive (Q1, necrosis).

MDA-MB-231 cells = test: Annexin V/PI apoptotic assay; assay type: cell-based, human; conditions: for total apoptotic cells: 48 h
Method: as §1

MCF-7 cells [5] = test: cell cycle analysis, PI staining, flow cytometry; assay type: cell-based, human; conditions: 1 μM
Method: The cells were collected by trypsinisation and centrifuged at 800× g for 15 min. Cells were washed twice with ice-cold phosphate-buffered saline (PBS) and fixed in ice-cold 70% ethanol overnight at −20 °C.

[6] = system: MCF-7 human breast cancer cells; conditions: MCF-7 section; read-out: IC50 of phenstatin positive control; cited from earlier work
[7] = system: MDA-MB-231 human breast cancer cells; set-up: method as in PMID 25721862; conditions: read-out: reported IC50 of phenstatin in MDA-MB-231 cells; cited from earlier work
[8] = Homo sapiens, MCF7, 48 h, read-out: Viable
[9] = Homo sapiens, MDA-MB-231, 48 h, read-out: Viable

In the case of `COc1ccc(C(=O)c2cc(OC)c(OC)c(OC)c2)cc1O` [phenstatin, (3-Hydroxy-4-Methoxyphenyl)(3,4,5-Trimethoxyphenyl)Methanone, reference compound], the “effect on tubulin polymerisation and assembly” value [1] is given as “significant inhibition of tubulin polymerisation”, the IC50 (HL-60 leukaemia cells) is given as 31 nM and the viability at 1 µM [2] is given as 30%. The “effect on microtubule network of MCF-7 cells” value [3] was “extensive depolymerisation of tubulin”, the viability at 0.1 µM (MCF-7 cells [4]; [8]) was 58.4% and the viability at 0.5 µM (MCF-7 cells [4]; [8]) was 50.7%. For the same molecule, the “Annexin V-stained positive cells (total apoptotic cells)” value (MCF-7 cells [4]; MCF-7, 0.1 μM) was 36.1%, the “Annexin V-stained positive cells (total apoptotic cells)” value (MCF-7 cells [4]; MCF-7, 0.5 μM) was 46% and the viability at 0.1 µM (MDA-MB-231 cells; [9]) was 80.4%. It also gave a viability at 0.5 µM (MDA-MB-231 cells; [9]) of 80.6%, a total apoptotic cells (MDA-MB-231 cells; MDA-MB-231, 0.1 μM) of 16.6% and a total apoptotic cells (MDA-MB-231 cells; MDA-MB-231, 0.5 μM) of 17.9%. The “cells in the G2/M phase” value (MCF-7 cells [5]; 24 h) was 65%, the “cells in the G2/M phase” value (MCF-7 cells [5]; 48 h) was 49% and the “cells in the G2/M phase” value (MCF-7 cells [5]; 72 h) was 51%. The “cells undergoing apoptosis (sub-G1)” value (MCF-7 cells [5]; 72 h) was 18%, the IC50 [6] was 1.61 ± 2.7 nM and the IC50 [7] was 1500 nM.
